Legend:
[1] = Body weight change in MeCP2 KO mice (HET); type: in vivo, mouse; conditions: 100 mg/kg po daily from about 5 weeks to 16 weeks old, FIG. 5
Procedure: Vehicle WT group: vehicle (0.9% saline, 10 ml/kg)
Vehicle HET group: vehicle (0.9% saline, 10 ml/kg)
Test compound HET group: 100 mg/kg, po in 0.9% saline
About 5 week old WT and HET mice were treated with daily oral injections of the vehicle or Test compound. Treatment conducted until the mice became 16 weeks old.

[2] = tested on: MeCP2 KO mouse primary cortical neurons; test: Morphological recovery of MeCP2 KO primary neuron: synaptogenesis and soma size (Synapsin-1, MAP2, Hoechst, DIV14); type: cell-based; conditions: Test compound 1000 nM from DIV1, analysed at DIV14
Procedure: (§1) MeCP2 KO mouse primary cortical neurons were cultured at PO and morphological change was analyzed via immunocytochemistry.
BDNF (50 ng/ml) or Test compound (1000 nM) was treated from DIV1 to indicated days. At DIV14, synaptogenesis and soma size were analyzed with Synapsin-1, MAP2 immunostaining and nuclear staining with Hoechst.

[3] = tested on: MeCP2 KO mouse primary cortical neurons; test: Morphological recovery of MeCP2 KO primary neuron: neurite outgrowth (MAP2 immunostaining, DIV5); type: cell-based; conditions: Test compound 80 and 2000 nM from DIV1, analysed at DIV5; BDNF 50 ng/ml as comparator; FIG. 1
Procedure: as §1
BDNF (50 ng/ml) or Test compound (80 and 2000 nM) was treated from DIV1 to indicated days. At DIV5, the neurite outgrowth was analyzed with MAP2 immunostaining for analysis of neurite formation.

[4] = tested on: MeCP2 knockout mice (Null); test: Survival rate test in MeCP2 knockout mice (Null); type: in vivo, mouse
Procedure: Vehicle Null group: vehicle (0.9% saline, 10 ml/kg)
Test compound Null group: 100 mg/kg, po in 0.9% saline
About 5 week old Null mice were treated with daily oral injections of the vehicle or Test compound. MeCP2 knockout mice (Null) survival rate test was conducted until all animals were dead.
ILS ([…])%: 100×(median survival days of test group-median survival days of vehicle group)/median survival days of vehicle group (FIG. 4).

MeCP2 KO mice (HET) [5] = test: Hindlimb clasping test in MeCP2 KO mice (HET); type: in vivo, mouse; conditions: 100 mg/kg, compared to vehicle-treated HET mice, FIG. 7
MeCP2 KO mice (HET) [6] = test: Accelerating rotarod test in MeCP2 KO mice (HET); type: in vivo, mouse; conditions: accelerating speed 0-40 rpm over 5 min, compared to vehicle-treated HET mice, FIG. 6
From the text: The rotarod test is widely used to evaluate the motor coordination of rodents, and is especially sensitive in detecting cerebellar dysfunction. The motor performance on the rotarod can be influenced by several factors, such as motor coordination, learning and cardiopulmonary endurance. Since several studies have shown that basal ganglia are essential in motor skill learning of serial motor sequence. The test measures parameters such as riding time (seconds) or endurance (RPM).
Mice were placed on the rotarod apparatus (Ugo basile, Italy) consisting of a rod that rotates at a constant or variable and accelerating speed of 4 rpm. Once a mouse loses its balance and falls onto an underlying platform, the timer automatically stops. Mice were exposed to the apparatus for 5 min training at a constant speed (4 rpm) and placed back on the rod after each fell. After a rest period of at least 1 hr, animals were placed back on the rotarod apparatus for testing. Once all animals in a test session were loaded on the rod, the rotarod apparatus was placed on accelerating speed (0-40 rpm) over 5 min and then the first falling time was recorded. The test was repeated three consecutive times per animal. For each test session, the RPM score at time of fall off the rod were recorded.

Compound: NC(=O)OC[C@H](N)Cc1ccccc1 [Test compound, (R)-(beta-amino-benzenepropyl) carbamate]
- body weight change [1]: did not affect the body weight change
- synaptogenesis ([2]; FIG. 2): significantly enhanced
- soma size ([2]; FIG. 3): significantly enhanced
- neurite length (neurite outgrowth) [3]: significantly enhanced the neurite length to a level similar to that of BDNF
- increase of ILS % ([4]; 100 mg/kg po daily from about 5 weeks old, compared to vehicle-treated Null mice, FIG. 4): 42.7%
- life span ([4]; 100 mg/kg po daily, vs vehicle, P<0.0046, Log lank test): significant enhancement of life span
- clasping (MeCP2 KO mice (HET) [5]): clasped less than vehicle-treated HET mice
- speed at fall (RPM score) (MeCP2 KO mice (HET) [6]): fell at higher speeds
- time to fall off from the rod (MeCP2 KO mice (HET) [6]): took more time to fall off from the rod
